Source: ChEMBL document CHEMBL1123972, “Drug-induced modifications of the immune response. 12. 4,5-Dihydro-4-oxo-2-(substituted amino)-3-furancarboxylic acids and derivatives as novel antiallergic agents” (1988)
Structures can show the parent of a compound that is named as a salt.

Tests used:
Format in all cases: functional
Rattus norvegicus [1] = experiment: Antiallergic activity of edema in the active anaphylaxis assay at a intraperitoneal dose of 100 mg/kg in rats; design: unit not given here
Rattus norvegicus [2] = experiment: Antiallergic activity evaluated as percent inhibition at intraperitoneal dose of 100 mg/kg in rats; details: for inhibition in vivo at 100 mg/kg: Rattus norvegicus, ip
Rattus norvegicus [3] = experiment: Inhibition of histamine -induced dermal vascular permeability in rats at a peroral dose of 100 mg/kg 1 hr prior to challenge; details: route oral
Rattus norvegicus [4] = experiment: Inhibition of serotonin -induced dermal vascular permeability in rats at a peroral dose of 100 mg/kg 1 hr prior to challenge; details: route oral
Rattus norvegicus [5] = experiment: Inhibition of bradykinin-induced dermal vascular permeability in rats at a peroral dose of 100 mg/kg 1 hr prior to challenge; details: route oral
Rattus norvegicus [6] = experiment: Inhibition of histamine -induced dermal vascular permeability in rats at a intraperitoneal dose of 100 mg/kg 1 hr prior to challenge; details: ip
Rattus norvegicus [7] = experiment: Inhibition of serotonin -induced dermal vascular permeability in rats at a intraperitoneal dose of 100 mg/kg 1 hr prior to challenge; details: ip
Rattus norvegicus [8] = experiment: Inhibition of bradykinin-induced dermal vascular permeability in rats at a intraperitoneal dose of 100 mg/kg 1 hr prior to challenge; details: ip
Rattus norvegicus [9] = experiment: Antiallergic activity of edema in the active anaphylaxis assay at a peroral dose of 100 mg/kg in rats; details: route oral
Rattus norvegicus [10] = experiment: Antiallergic activity evaluated as percent inhibition at peroral dose of 100 mg/kg in rats; details: route oral

Row | SMILES | Activity (Rattus norvegicus [1]) | inhibition in vivo at 100 mg/kg (Rattus norvegicus [2]) [%] | inhibition in vivo at 100 mg/kg (Rattus norvegicus [6]) [%] | inhibition in vivo at 100 mg/kg (Rattus norvegicus [7]) [%] | inhibition in vivo at 100 mg/kg (Rattus norvegicus [8]) [%] | other results
1 | O=C1COC(Nc2ccccc2)=C1C(=O)Nc1ccccc1 | 2.45 | 46 |  |  |  | 
2 | CCOC(=O)C1=C(Nc2ccc(C(=O)OCC)cc2)OCC1=O |  |  |  |  |  | inhibition in vivo at 100 mg/kg (Rattus norvegicus [3]): 21%; inhibition in vivo at 100 mg/kg (Rattus norvegicus [4]): 18%; inhibition in vivo at 100 mg/kg (Rattus norvegicus [5]): 21%
3 | CC1(C)OC(Nc2ccccc2)=C(C(=O)O)C1=O | 1.95 | 44 |  |  |  | 
4 | Cc1ccccc1NC(=O)C1=C(Nc2ccccc2C)OCC1=O |  |  | 0 | 9 | 7 | 
5 | O=C([O-])C1=C(NC2CC2c2ccccc2)OCC1=O.[Na+] (stereo unspecified) | 3.72 | 22 |  |  |  | 
6 | O=C(O)C1=C(Nc2ccc(C(=O)O)cc2)OCC1=O | 2 | 52 | 64 | 63 | 64 | 
7 | CCOC(=O)C1=C(Nc2ccccc2)OC(C)(C)C1=O | 7.71 | 16 |  |  |  | 
8 | COc1ccc(NC(=O)C2=C(Nc3ccc(OC)cc3)OCC2=O)cc1 |  |  | 8 | 13 | 39 | 
9 | COc1ccccc1NC1=C(C(=O)O)C(=O)CO1 | 3.45 | 45 |  |  |  | inhibition in vivo at 100 mg/kg (Rattus norvegicus [3]): 27%; inhibition in vivo at 100 mg/kg (Rattus norvegicus [4]): 30%; inhibition in vivo at 100 mg/kg (Rattus norvegicus [5]): 38%
10 | O=C1COC(Nc2ccc(Cl)cc2)=C1C(=O)Nc1ccc(Cl)cc1 |  |  | 15 | 14 | 44 | 
11 | CCOC(=O)C1=C(NC)OCC1=O |  |  | 50 | 38 | 25 | 
12 | CCOC(=O)C1=C(NC2CC2c2ccc(Cl)cc2)OCC1=O (stereo unspecified) |  |  | 60 | 51 | 76 | 
13 | COc1ccccc1NC(=O)C1=C(Nc2ccccc2OC)OCC1=O |  |  | 1 | 18 | 39 | 
14 | CN1CCC(=C2c3ccccc3C=Cc3ccccc32)CC1 [CYPROHEPTADINE HYDROCHLORIDE] |  |  | 93 | 93 | 23 | 
15 | CCOC(=O)C1=C(Nc2ccccc2)OC(C)C1=O (stereo unspecified) | 1.44 | 61 | 40 | 37 | 46 | 
16 | O=C(O)C1=C(Nc2cccc3ccccc23)OCC1=O | 1.2 | 64 |  |  |  | 
17 | O=C([O-])C1=C(Nc2ccccc2)OCC1=O.[Na+] | 2.75 |  |  |  |  | Inhibition (Rattus norvegicus [2]): 17%
18 | CC1OC(Nc2ccccc2)=C(C(=O)O)C1=O (stereo unspecified) | 2 | 60 |  |  |  | 
19 | CCOC(=O)C1=C(Nc2cccc(C(F)(F)F)c2)OCC1=O |  |  |  |  |  | inhibition in vivo at 100 mg/kg (Rattus norvegicus [3]): 4.1%; inhibition in vivo at 100 mg/kg (Rattus norvegicus [4]): 9.7%; inhibition in vivo at 100 mg/kg (Rattus norvegicus [5]): 40%
20 | O=C(O)C1=C(Nc2cccc(C(F)(F)F)c2)OCC1=O | 3.35 | 45 |  |  |  | inhibition in vivo at 100 mg/kg (Rattus norvegicus [3]): 26%; inhibition in vivo at 100 mg/kg (Rattus norvegicus [4]): 40%; inhibition in vivo at 100 mg/kg (Rattus norvegicus [5]): 54%
21 | Cc1ccc(C2CC2NC2=C(C(=O)O)C(=O)CO2)cc1 (stereo unspecified) | 1.58 | 45 | 100 | 100 | 100 | 
22 | CCOC(=O)C1=C(Nc2ccc(Cl)cc2)OCC1=O |  |  |  |  |  | inhibition in vivo at 100 mg/kg (Rattus norvegicus [3]): 3.3%; inhibition in vivo at 100 mg/kg (Rattus norvegicus [4]): 6.6%; inhibition in vivo at 100 mg/kg (Rattus norvegicus [5]): 9.5%
23 | O=C(O)C1=C(Nc2ccc(Br)cc2)OCC1=O | 3.24 | 27 |  |  |  | inhibition in vivo at 100 mg/kg (Rattus norvegicus [3]): 45%; inhibition in vivo at 100 mg/kg (Rattus norvegicus [4]): 39%; inhibition in vivo at 100 mg/kg (Rattus norvegicus [5]): 68%
24 | O=C(O)C1=C(NC2CC2c2ccc(Cl)cc2)OCC1=O (stereo unspecified) | 4.1 | 6 | 56 | 54 | 71 | 
25 | Cn1c(=O)c2nc[nH]c2n(C)c1=O.O [THEOPHYLLINE] |  |  |  |  |  | Activity (Rattus norvegicus [9]): 3.75; inhibition in vivo at 100 mg/kg (Rattus norvegicus [10]): 66%
26 | O=C(O)C1=C(Nc2cccc([N+](=O)[O-])c2)OCC1=O | 7.29 | 39 | 16 | 18 | 48 | 
27 | O=C(O)C1=C(Nc2ccccc2)OCC1=O | 0.47 |  |  |  |  | Inhibition (Rattus norvegicus [2]): 81%
28 | CCOC(=O)C1=C(NC2CC2c2ccccc2)OCC1=O (stereo unspecified) |  |  |  |  |  | inhibition in vivo at 100 mg/kg (Rattus norvegicus [3]): 35%; inhibition in vivo at 100 mg/kg (Rattus norvegicus [4]): 57%; inhibition in vivo at 100 mg/kg (Rattus norvegicus [5]): 59%
